# Test results: PubChem BioAssay (NCI)
#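 Grown in 96-well plates, cells were treated for 48 hours with each compound at five concentrations. Insufficient inhibition: endpoint recorded as highest concentration tested. At the GI50, growth is halved. Definition used: TGI = concentration required for complete inhibition of growth.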
# Columns and labels:
# Experiment in all cases: growth of human tumour cells (NCI), 48 h
# [1] = system: HOP-62 NSCLC
# [2] = system: KM12 colon
# [3] = system: UACC-257 melanoma
# [4] = system: SK-OV-3 ovarian
# [5] = system: DU-145 prostate
# [6] = system: EKVX NSCLC
# [7] = system: NCI-H226 lung
# [8] = system: MDA-MB-231 breast
# [9] = system: PC-3 prostate
# [10] = system: LOX IMVI melanoma
# [11] = system: RXF 393 renal
# [12] = system: SK-MEL-5 melanoma
# [13] = system: ACHN renal
# [14] = system: NCI/ADR-RES ovarian
# [15] = system: HL-60(TB) leukemia
# [16] = system: NCI-H460 lung
# [17] = system: IGROV1 ovarian
# [18] = system: SK-MEL-2 melanoma
# [19] = system: U251 CNS
# [20] = system: BT-549 breast
# [21] = system: HCT-15 colon
# [22] = system: NCI-H23 lung
# [23] = system: HS 578T breast
# [24] = system: NCI-H522 lung
# [25] = system: T-47D breast
# [26] = system: HOP-92 NSCLC
# [27] = system: SF-268 CNS
# [28] = system: UACC-62 melanoma
# [29] = system: A549 NSCLC
# [30] = system: CCRF-CEM leukemia
# [31] = system: SNB-19 CNS
# [32] = system: SNB-75 CNS
# [33] = system: OVCAR-4 ovarian
# [34] = system: OVCAR-8 ovarian
# [35] = system: OVCAR-5 ovarian
# [36] = system: SF-295 CNS
# [37] = system: OVCAR-3 ovarian
# [38] = system: MALME-3M melanoma
# [39] = system: SN12C renal
# [40] = system: 786-0 renal
# [41] = system: RPMI-8226 leukemia
# [42] = system: SR leukemia
# [43] = system: SW-620 colon
# [44] = system: HCT-116 colon
# [45] = system: CAKI-1 renal
# [46] = system: SK-MEL-28 melanoma
# [47] = system: HCC-2998 colon
# [48] = system: MOLT-4 leukemia
# [49] = system: A498 renal
# [50] = system: HT29 colon
# [51] = system: COLO 205 colon
# [52] = system: UO-31 renal
# [53] = system: MDA-MB-435
# [54] = system: SF-539 CNS
# [55] = system: MCF7 breast
# [56] = system: K-562 leukemia
# [57] = system: M14 melanoma
# [58] = system: TK-10 renal
# [59] = system: MDA-N
structure (smiles),measurement,setting,value
CC[C@H](C)C(=O)O[C@H]1CCC=C2C=C[C@H](C)[C@H](CC[C@@H]3C[C@@H](O)CC(=O)O3)[C@H]21,GI50,[1],12.4 µM
same,TGI,[1],> 100 µM
same,TGI,[2],> 100 µM
same,GI50,[3],73.3 µM
same,TGI,[3],> 100 µM
same,GI50,[4],5.96 µM
same,TGI,[4],> 100 µM
same,GI50,[5],51.6 µM
same,TGI,[5],> 100 µM
same,GI50,[6],7.93 µM
same,TGI,[6],> 100 µM
same,GI50,[7],6.82 µM
same,TGI,[7],> 82.2 µM
same,GI50,[8],0.352 µM
same,TGI,[8],2.54 µM
same,GI50,[9],1.7 µM
same,TGI,[9],> 100 µM
same,GI50,[10],1.07 µM
same,TGI,[10],6.53 µM
same,GI50,[11],3.32 µM
same,TGI,[11],16.6 µM
same,GI50,[12],3.39 µM
same,TGI,[12],13.6 µM
same,GI50,[13],1.46 µM
same,TGI,[13],5.18 µM
same,GI50,[14],3.34 µM
same,TGI,[14],> 100 µM
same,GI50,[15],17.1 µM
same,TGI,[15],76.5 µM
same,GI50,[16],8.59 µM
same,TGI,[16],> 100 µM
same,GI50,[17],5 µM
same,TGI,[17],> 100 µM
same,GI50,[18],1.77 µM
same,TGI,[18],11.7 µM
same,GI50,[19],1.13 µM
same,TGI,[19],> 100 µM
same,GI50,[20],14.4 µM
same,TGI,[20],> 78.5 µM
same,GI50,[21],2.52 µM
same,TGI,[21],> 100 µM
same,GI50,[22],8.37 µM
same,TGI,[22],> 100 µM
same,GI50,[23],4.56 µM
same,TGI,[23],> 100 µM
same,GI50,[24],2.41 µM
same,TGI,[24],39.6 µM
same,GI50,[25],21.9 µM
same,TGI,[25],> 100 µM
same,GI50,[26],0.135 µM
same,TGI,[26],0.706 µM
same,GI50,[27],2.14 µM
same,TGI,[27],> 100 µM
same,GI50,[28],2.51 µM
same,TGI,[28],> 24.4 µM
same,GI50,[29],11.7 µM
same,TGI,[29],> 100 µM
same,GI50,[30],34.1 µM
same,TGI,[30],> 100 µM
same,GI50,[31],3.54 µM
same,TGI,[31],> 100 µM
same,GI50,[32],1.37 µM
same,TGI,[32],4.68 µM
same,GI50,[33],19.8 µM
same,TGI,[33],> 100 µM
same,GI50,[34],5.05 µM
same,TGI,[34],> 100 µM
same,GI50,[35],14.4 µM
same,TGI,[35],> 100 µM
same,GI50,[36],1.66 µM
same,TGI,[36],4.32 µM
same,TGI,[37],> 100 µM
same,TGI,[38],> 100 µM
same,GI50,[39],3.88 µM
same,TGI,[39],> 100 µM
same,GI50,[40],8.95 µM
same,TGI,[40],> 74.5 µM
same,GI50,[41],13.1 µM
same,TGI,[41],> 75.9 µM
same,GI50,[42],3.79 µM
same,TGI,[42],> 59.4 µM
same,GI50,[43],11.8 µM
same,TGI,[43],> 100 µM
same,GI50,[44],2.84 µM
same,TGI,[44],> 59 µM
same,GI50,[45],2.6 µM
same,TGI,[45],11.2 µM
same,GI50,[46],15.3 µM
same,TGI,[46],> 100 µM
same,GI50,[47],36.9 µM
same,TGI,[47],> 100 µM
same,TGI,[48],> 100 µM
same,GI50,[49],0.183 µM
same,TGI,[49],1.36 µM
same,GI50,[50],28 µM
same,TGI,[50],> 100 µM
same,TGI,[51],82 µM
same,GI50,[52],5.29 µM
same,TGI,[52],> 100 µM
same,GI50,[53],7.51 µM
same,TGI,[53],> 100 µM
same,GI50,[54],12.8 µM
same,TGI,[54],> 100 µM
same,GI50,[55],> 42.5 µM
same,TGI,[55],> 100 µM
same,GI50,[56],22 µM
same,TGI,[56],> 100 µM
same,GI50,[57],8.97 µM
same,TGI,[57],> 100 µM
same,GI50,[58],22.5 µM
same,TGI,[58],> 100 µM
O=C(O)c1ccc(Nc2nc3ccc(C(F)(F)F)cc3nc2C(=O)O)cc1,TGI,[1],> 100 µM
same,TGI,[2],> 100 µM
same,TGI,[3],> 100 µM
same,TGI,[4],> 100 µM
same,TGI,[5],> 100 µM
same,TGI,[6],> 100 µM
same,TGI,[7],> 100 µM
same,TGI,[8],> 100 µM
same,TGI,[9],> 100 µM
same,TGI,[10],> 100 µM
same,TGI,[11],> 100 µM
same,TGI,[12],> 100 µM
same,TGI,[13],> 100 µM
same,TGI,[14],> 100 µM
same,TGI,[15],> 100 µM
same,TGI,[16],> 100 µM
same,TGI,[17],> 100 µM
same,TGI,[18],> 100 µM
same,TGI,[19],> 100 µM
same,TGI,[21],> 100 µM
same,TGI,[22],> 100 µM
same,TGI,[23],> 100 µM
same,TGI,[24],> 100 µM
same,TGI,[25],> 100 µM
same,TGI,[26],> 100 µM
same,TGI,[27],> 100 µM
same,TGI,[28],> 100 µM
same,TGI,[29],> 100 µM
same,TGI,[30],> 100 µM
same,TGI,[31],> 100 µM
same,TGI,[32],> 100 µM
same,TGI,[33],> 100 µM
same,TGI,[34],> 100 µM
same,TGI,[35],> 100 µM
same,TGI,[36],> 100 µM
same,TGI,[37],> 100 µM
same,TGI,[38],> 100 µM
same,TGI,[39],> 100 µM
same,TGI,[40],> 100 µM
same,TGI,[41],> 100 µM
same,TGI,[42],> 100 µM
same,TGI,[43],> 100 µM
same,TGI,[59],> 100 µM
same,TGI,[44],> 100 µM
same,TGI,[45],> 100 µM
same,TGI,[46],> 100 µM
same,TGI,[47],> 100 µM
same,TGI,[48],> 100 µM
same,TGI,[50],> 100 µM
same,TGI,[51],> 100 µM
same,TGI,[52],> 100 µM
same,TGI,[53],> 100 µM
same,TGI,[54],> 100 µM
same,TGI,[55],> 100 µM
same,TGI,[56],> 100 µM
same,TGI,[57],> 100 µM
same,TGI,[58],> 100 µM
O=C1Nc2n[nH]c(=S)n2NC12c1ccccc1-c1ccccc12,TGI,[1],> 100 µM
same,TGI,[3],48.4 µM
same,TGI,[4],> 100 µM
same,TGI,[5],> 100 µM
same,TGI,[6],> 100 µM
same,TGI,[7],> 100 µM
same,TGI,[8],> 100 µM
same,TGI,[9],> 100 µM
same,TGI,[10],> 100 µM
same,TGI,[11],> 100 µM
same,TGI,[12],> 100 µM
same,TGI,[13],> 100 µM
same,TGI,[14],> 100 µM
same,TGI,[15],> 100 µM
same,TGI,[16],> 100 µM
same,TGI,[17],> 100 µM
same,TGI,[18],> 100 µM
same,TGI,[19],> 100 µM
same,TGI,[20],> 100 µM
same,TGI,[21],> 100 µM
same,TGI,[22],> 100 µM
same,TGI,[23],> 100 µM
same,TGI,[24],> 100 µM
same,TGI,[26],> 100 µM
same,TGI,[27],> 100 µM
same,TGI,[28],68.1 µM
same,TGI,[29],> 100 µM
same,TGI,[31],> 100 µM
same,TGI,[32],> 100 µM
same,TGI,[33],39.1 µM
same,TGI,[34],> 100 µM
same,TGI,[35],> 100 µM
same,TGI,[36],> 100 µM
same,TGI,[37],> 100 µM
same,TGI,[38],> 100 µM
same,TGI,[39],> 100 µM
same,TGI,[40],> 100 µM
same,TGI,[42],> 100 µM
same,TGI,[43],> 100 µM
same,TGI,[59],> 100 µM
same,TGI,[44],93.6 µM
same,TGI,[45],> 100 µM
same,TGI,[46],> 100 µM
same,TGI,[47],> 100 µM
same,TGI,[49],> 100 µM
same,TGI,[50],> 100 µM
same,TGI,[51],> 100 µM
same,TGI,[52],> 100 µM
same,TGI,[53],37.4 µM
same,TGI,[54],> 100 µM
same,TGI,[55],> 100 µM
same,TGI,[57],> 100 µM
same,TGI,[58],> 100 µM
